Source: article PMC9154810, “Selective inhibition of carbonic anhydrase IX by sulphonylated 1,2,3-triazole incorporated benzenesulphonamides capable of inducing apoptosis” (Journal of Enzyme Inhibition and Medicinal Chemistry, 2022)
Where two headings read alike, the source gives them in different places.

Legend:
testicular cells = assay: EB/AO differential staining, apoptosis detection and quantification; assay type: cell-based, Goat (Capra hircus); conditions: 10 µM, 6 h, mean ± SEM; control 7.33 ± 0.33
Protocol: (§1) Goat (Capra hircus) testicular tissues were procured from slaughterhouses of Chandigarh (30°43′ N, 76°12′ E) and around Kurukshetra (29°6′ N, 76°50′ E) in 0.9% normal saline at 4 °C. The testicular cells/tissues were cultured in vitro in media-TCM199 and exposed to 10 µM concentration of given compounds for 6 h in a CO2 incubator with 5% CO2 and 95% humidity at 38 °C temperature.[22]^,[23]
Ethidium bromide and acridine orange (EB/AO) staining was used to determine the cyto-genotoxic nature of given compounds in testicular cells.[25] Briefly, the testicular cell suspension prepared from the treated testicular tissue was mixed with equal volume of EB/AO differential stain on a glass slide and covered with a coverslip. Observation and quantification of apoptotic cells were done with fluorescence microscope (Olympus, Japan) using filters of 500–525 nm. Cells appearing bright green were marked as normal healthy cells, while cells displaying orange-red fluorescence were marked as apoptotic.

hCA IX = hCA IX (Homo sapiens, UniProt Q16790); assay: stopped-flow CO2 hydrase assay, hCA IX; conditions: for Selectivity index I/IX: ratio KI hCA I / KI hCA IX; for Selectivity index II/IX: ratio KI hCA II / KI hCA IX
Source text: (§2) An Sx.18Mv-R Applied Photophysics (Oxford, UK) stopped-flow instrument was used to assay the catalytic activity of various CA isozymes for CO2 hydration reaction.[21]

hCA I = hCA I (Homo sapiens, UniProt P00915); assay: stopped-flow CO2 hydrase assay, hCA I
Source text: as §2

[1] = MTT assay, cell viability; assay type: cell-based; conditions: goat (Capra hircus), primary goat testicular cells, mean ± SEM, read-out: percent cell viability
Protocol: as §1
Testicular cells were cultured in 96-well plates. Wells for blank control were without any cells and contained MTT [3-(4,5-dimethylthiazol-2-yl)-2,5-diphenyl-tetrazolium-bromide)], culture medium, and DMSO. The remaining wells were seeded with testicular cells, which were treated with given compounds at 10 µM concentration for 6 h. Post treatment, 10 µL of MTT stock solution was added to each well, and the reaction mixture was incubated for 2 h. After that 200 µL of DMSO was added in each well, followed by shaking for 10 min. Absorbance of reaction mixture was taken at 470 nm.

hCA II = hCA II (Homo sapiens, UniProt P00918); assay: stopped-flow CO2 hydrase assay, hCA II
Source text: as §2

hCA IV = hCA IV (Homo sapiens, UniProt P22748); assay: stopped-flow CO2 hydrase assay, hCA IV
Source text: as §2

[2] = mean from three assays, stopped-flow technique, errors ± 5–10%

hCA I, sequence (P00915 whole entry): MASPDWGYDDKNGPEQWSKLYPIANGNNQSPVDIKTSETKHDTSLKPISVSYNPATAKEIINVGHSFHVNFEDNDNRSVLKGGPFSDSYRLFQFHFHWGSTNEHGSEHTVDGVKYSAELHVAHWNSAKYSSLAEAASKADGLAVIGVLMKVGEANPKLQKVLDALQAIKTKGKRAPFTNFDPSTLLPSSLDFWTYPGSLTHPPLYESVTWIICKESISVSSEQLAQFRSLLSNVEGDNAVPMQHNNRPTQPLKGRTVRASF
hCA IV, sequence (P22748 19-312): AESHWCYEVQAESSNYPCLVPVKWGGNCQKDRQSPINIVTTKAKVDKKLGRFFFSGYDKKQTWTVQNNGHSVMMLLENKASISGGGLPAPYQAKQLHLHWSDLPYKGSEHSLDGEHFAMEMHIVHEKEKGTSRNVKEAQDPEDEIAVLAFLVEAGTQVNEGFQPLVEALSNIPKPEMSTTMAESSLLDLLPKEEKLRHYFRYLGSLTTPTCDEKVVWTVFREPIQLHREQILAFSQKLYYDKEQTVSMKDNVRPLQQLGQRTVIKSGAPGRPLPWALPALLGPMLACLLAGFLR

Row | Ki (hCA IX) [nM] | Selectivity index I/IX (hCA IX) | Selectivity index II/IX (hCA IX) | Ki (hCA I; [2]) [nM] | Ki (hCA II) [nM] | melting point [°C] | Ki (hCA IV) [nM] | selectivity for hCA IX over hCA I (hCA IX) | Ki (hCA I) [nM] | SMILES | percent apoptosis (testicular cells) [%] | viability at 6 h, 10 µM [1] [%]
1 | 16.4 | 42.42 | 3.56 | 696 | 58.4 | 123 to 125 | 91.8 | – | – | NS(=O)(=O)c1cccc(-n2nnc(S(=O)(=O)c3ccccc3)c2-c2ccc(Cl)cc2)c1 [Compound 10d, 3-(5-(4-chlorophenyl)-4-(phenylsulphonyl)-1H-1,2,3-triazol-1-yl)benzenesulphonamide] | 35.00 ± 1.15 | 32 ± 6.92
2 | 22.8 | 352.32 | 28.45 | 8030 | 649 | 231 to 233 | 6050 | more than 100 fold | 8030 | COc1ccc(-c2c(S(=O)(=O)c3ccccc3)nnn2-c2cccc(S(N)(=O)=O)c2)cc1Br [Compound 10h, 3-(5-(3-bromo-4-methoxyphenyl)-4-(phenylsulphonyl)-1H-1,2,3-triazol-1-yl)benzenesulphonamide] | 29.33 ± 1.45 | 46.7 ± 4.8
